Measurements: patent publication EP1501797B1, “3-(SUBSTITUTED AMINO)-1H-INDOLE-2-CARBOXYLIC ACID ESTER AND 3-(SUBSTITUTED AMINO)-BENZO[B]THIOPHENE-2-CARBOXYLIC ACID ESTER DERIVATIVES AS INTERLEUKIN-4 GENE EXPRESSION INHIBITORS” (Aventis Pharmaceuticals Inc., priority 2002, dated 2003)
Where “and” joins values, the source holds several entries; their conditions need not be identical. Equal entries are not always repeated.

Legend:
human IL-4 promoter = assay: IL-4 Luciferase assay in Jurkat cells (6.7-IL-4 Luc); assay type: cell-based; conditions: Jurkat cell line; concentration not given
IgG2a Anti-DNP Antibody = assay: In vivo model of humoral immunity in mice (DNP-KLH), IgG2a anti-DNP antibody
Procedure: Female Balb/c mice, each weighing approximately 20 to 25 grams each, aged 5 to 8 weeks are used. Each experiment uses 30 mice.
The antigen for immunization is 2,4-dinitrophenyl (DNP) or 2,4,6-trinitrophenyl (TNP) conjugated to keyhole limpet haemocyanin (KLH). The antigen (100 µg/mouse) is adsorbed to an adjuvant (colloidal aluminum hydroxide) and given i.p. to animal in a total volume of 0.2-0.3 ml.
Animals are randomly divided into 5 groups of 6 mice each. Group 1 is a positive control group, Groups 2, 3, and 4 are test compound groups, and Group 5 is a vehicle control group. Compounds may be given by i.n., i.p., p.o., s.c., i.m. or i.v. administration. […] On day 8 after the immunization, mice are bled by cardiac puncture under anesthesia (isoflurane), and the serum samples are stored at -20°C until required for antibody analysis. The anesthetized animals are euthanized with overdosage of sodium pentobarbital at the end of experiment. Statistical analysis of the data are performed using ANOVA.
Mice are immunized with a hapten carrier conjugate, DNP-KLH, and anti-DNP antibody levels are determined in a isotype specific manner as described above. […]

Human primary Th1 cells = assay: Human primary Th1 (NYTh1) cells, proliferation (MTS assay); assay type: cell-based; conditions: data from 8 different experiments combined
Procedure: Briefly, CD4^+CD45RA^+ T cells, isolated from donor peripheral blood mononuclear cells of healthy donors, are educated in the presence of anti-CD3/CD28 antibodies and various growth factors to obtain either a Thl-like or Th2-like phenotypes as determined by the known cytokine profiles of these two cell types.
Generation of Th1/Th2 cells: Twenty four well plates are coated with 300 µL anti-CD3 Ab (10 µg/ml, in PBS 1-2 h at 37°C or overnight at 4°C), and washed two times with PBS. CD4^+/CD45RA^+ cells at a density of 10^6/ml in RPMI, is prepared and added to RPMI medium containing 10% Hyclone serum/ glutamine and 1-2 µg/ml anti-CD28 Ab. The cells are split in two aliquots. […] The degree of polarization is determined by intracellular staining of cells with anti-IFN-γ and anti-IL-4 antibodies from Pharmingen, and using flow cytometry from Becton Dickinson (BD), according to manufacturers description. […] For compound testing, large quantities of Th1 and Th2 cells derived from a given donor (NYTh1 and NYTh2) were expanded and frozen as aliquots in liquid nitrogen. […]
Re-stimulation by allogeneic cells: Human PBMCs, to be used as alloantigens, are isolated from freshly drawn blood by Ficoll separation. […] Cells are counted and diluted to a final concentration of 2 x 10^6/ml in medium containing 10 µg/ml PHA and 200 units/ml IL-2. […]

human IFN-γ promoter = assay: IFN-γ Luc assay in Jurkat cells; assay type: cell-based; conditions: Jurkat cell line; concentration not given; 480 min

O=C(O)c1[nH]c2ccccc2c1Nc1ccncc1 [Example 28, 3-(4-Pyridinylamino)-1H-indole-2-carboxylic acid]
6.7-IL-4 Luc (% of control) (human IL-4 promoter): 62 ± 29 % of control | IgG2a Anti-DNP Antibody Titer (IgG2a Anti-DNP Antibody; individual animals 1-6, dose not stated): 30.59 and 38.60 and 14.09 and 17.45 and 30.21 and 27.98 | IgG2a Anti-DNP Antibody Titer Mean+/-SE (IgG2a Anti-DNP Antibody; vehicle 30.47 +/-2.37, dose not stated): 26.49 +/-3.72 | IgG2a Anti-DNP Antibody Titer Inhibition (IgG2a Anti-DNP Antibody; versus vehicle): 13% | IC50 (Human primary Th1 cells): > 10 µM | 2.7-IFN-γ -Luc (% of control) (human IFN-γ promoter): 100 ± 15 % of control
